Experimental data from patent US6737383B1, “Herbicidal oxadiazolidines” (priority 1999, dated 2004).

Tests used:
[1] = system: rape; test: Test B pre/postemergence rape; assay type: in vivo, Brassica napus; settings: for Plant response rating, Rape: scale of 0 to 10 where 0 is no effect and 10 is complete control
Outline: (§1)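 Response is a visual 0-to-10 score relative to untreated plants, where 0 means no effect and 10 means complete control, taken twelve to sixteen days after application. Treatments went onto soil at planting and onto foliage of 1- to 4-leaf plants, using a surfactant-containing non-phytotoxic solvent.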

[2] = system: wheat; test: Test B pre/postemergence wheat; assay type: in vivo, Triticum aestivum; settings: for Plant response rating, Wheat: scale of 0 to 10 where 0 is no effect and 10 is complete control
Outline: as §1

[3] = system: pigweed; test: Test B pre/postemergence pigweed; assay type: in vivo, Amaranthus retroflexus; settings: for Plant response rating, Redroot pigweed: scale of 0 to 10 where 0 is no effect and 10 is complete control
Outline: as §1

[4] = system: corn; test: Test B pre/postemergence corn; assay type: in vivo, Zea mays
Outline: as §1

[5] = system: smallflower flatsedge; test: Test B flood test smallflower flatsedge; assay type: in vivo, Cyperus difformis
Outline: (§2)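 Each value is a visual injury score relative to controls, with 10 meaning complete control and 0 no effect. Evaluation took place twelve to sixteen days after the 2-leaf-stage plants were treated and kept in the greenhouse.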

[6] = system: cocklebur; test: Test B pre/postemergence cocklebur; assay type: in vivo, Xanthium strumarium
Outline: as §1

[7] = system: blackgrass; test: Test B pre/postemergence blackgrass; assay type: in vivo, Alopecurus myosuroides
Outline: as §1

[8] = system: surinam grass; test: Test B pre/postemergence surinam grass; assay type: in vivo, Brachiaria decumbens
Outline: as §1

[9] = system: velvetleaf; test: Test B pre/postemergence velvetleaf; assay type: in vivo, Abutilon theophrasti; settings: for Plant response rating, Velvetleaf: scale of 0 to 10 where 0 is no effect and 10 is complete control
Outline: as §1

[10] = system: wild oat; test: Test B pre/postemergence wild oat; assay type: in vivo, Avena fatua; settings: for Plant response rating, Wild oats: scale of 0 to 10 where 0 is no effect and 10 is complete control
Outline: as §1

[11] = system: soybean; test: Test B pre/postemergence soybean; assay type: in vivo, Glycine max; settings: for Plant response rating, Soybean: scale of 0 to 10 where 0 is no effect and 10 is complete control
Outline: as §1

[12] = system: purple nutsedge; test: Test B pre/postemergence purple nutsedge; assay type: in vivo, Cyperus rotundus; settings: for Plant response rating, Nutsedge: scale of 0 to 10 where 0 is no effect and 10 is complete control
Outline: as §1

[13] = system: crabgrass; test: Test B pre/postemergence crabgrass; assay type: in vivo, Digitaria sanguinalis
Outline: as §1

[14] = system: sugar beet; test: Test B pre/postemergence sugar beet; assay type: in vivo, Beta vulgaris; settings: for Plant response rating, Sugarbeets: scale of 0 to 10 where 0 is no effect and 10 is complete control
Outline: as §1

[15] = system: bedstraw; test: Test B pre/postemergence bedstraw; assay type: in vivo, Galium aparine
Outline: as §1

[16] = system: bamyardgrass; test: Test B flood test barnyardgrass; assay type: in vivo, Echinochloa crus-galli
Outline: as §2

[17] = Postemergence, Rate 250 g/ha, scale 0 to 10
[18] = Preemergence, Rate 250 g/ha, scale 0 to 10, 0 is no effect, 10 is complete control
[19] = Preemergence, Rate 500 g/ha, scale 0 to 10, 0 is no effect, 10 is complete control
[20] = Rate 62 g/ha, Postemergence, scale 0 to 10 (0 no effect, 10 complete control)
[21] = Rate 125 g/ha, Postemergence, scale 0 to 10, 0 is no effect, 10 is complete control
[22] = Postemergence, Rate 500 g/ha, scale of 0 to 10 where 0 is no effect and 10 is complete control
[23] = Preemergence, Rate 62 g/ha, scale of 0 to 10 where 0 is no effect and 10 is complete control
[24] = Preemergence, Rate 125 g/ha, scale of 0 to 10 where 0 is no effect and 10 is complete control
[25] = Rate 62 g/ha, flood test species, Pre-emergence, visual evaluation after twelve to sixteen days
[26] = Rate 125 g/ha, under heading Pre-emergence, flood test species, visual evaluation after twelve to sixteen days
[27] = Rate 250 g/ha, Pre-emergence (flood test species), scale 0 to 10, 0 is no effect, 10 is complete control
[28] = Rate 500 g/ha, Pre-emergence, flood test species, scale 0 to 10 (0 no effect, 10 complete control)

CC(C)N(C(=O)n1oc(=O)n(CCCl)c1=O)c1ccc(Cl)cc1 [Compound 474]
Rape plant response rating [1, 17]: 0
Plant response rating, Rape ([1]; Preemergence, Rate 62 g/ha): 0
Plant response rating, Rape ([1]; Preemergence, Rate 125 g/ha): 0
Rape plant response rating [1, 18]: 2
Rape plant response rating [1, 19]: 4
Rape plant response rating [1, 20]: 0
Rape plant response rating [1, 21]: 0
Wheat plant response rating [2, 17]: 0
Plant response rating, Wheat ([2]; Preemergence, Rate 62 g/ha): 0
Plant response rating, Wheat ([2]; Preemergence, Rate 125 g/ha): 0
Wheat plant response rating [2, 18]: 0
Wheat plant response rating [2, 19]: 0
Wheat plant response rating [2, 20]: 0
Wheat plant response rating [2, 21]: 0
Redroot pigweed plant response rating [3, 17]: 2
Plant response rating, Redroot pigweed ([3]; Preemergence, Rate 62 g/ha): 1
Plant response rating, Redroot pigweed ([3]; Preemergence, Rate 125 g/ha): 3
Redroot pigweed plant response rating [3, 18]: 5
Redroot pigweed plant response rating [3, 19]: 7
Redroot pigweed plant response rating [3, 20]: 0
Redroot pigweed plant response rating [3, 21]: 1
Corn plant response rating [4, 17]: 0
Corn plant response rating [4, 22]: 0
Plant response rating, Corn [4, 23]: 0
Plant response rating, Corn [4, 24]: 0
Corn plant response rating [4, 18]: 0
Corn plant response rating [4, 19]: 4
Corn plant response rating [4, 20]: 0
Corn plant response rating [4, 21]: 0
Plant response rating, S. Flatsedge (0 to 10 scale, 0 is no effect, 10 is complete control) [5, 25]: 0
S. Flatsedge plant response rating (0 to 10 scale, 0 is no effect, 10 is complete control) [5, 26]: 0
S. Flatsedge plant response rating [5, 27]: 0
S. Flatsedge plant response rating [5, 28]: 0
Cocklebur plant response rating [6, 17]: 0
Cocklebur plant response rating [6, 22]: 4
Plant response rating, Cocklebur [6, 23]: 0
Plant response rating, Cocklebur [6, 24]: 0
Cocklebur plant response rating [6, 18]: 0
Cocklebur plant response rating [6, 19]: 0
Cocklebur plant response rating [6, 20]: 0
Cocklebur plant response rating [6, 21]: 0
Blackgrass plant response rating [7, 17]: 8
Blackgrass plant response rating [7, 22]: 8
Plant response rating, Blackgrass [7, 23]: 3
Plant response rating, Blackgrass [7, 24]: 3
Blackgrass plant response rating [7, 18]: 4
Blackgrass plant response rating [7, 19]: 9
Blackgrass plant response rating [7, 20]: 7
B. signalgrass plant response rating ([8]; Postemergence, Rate 250 g/ha, scale 0 to 10, 0 no effect, 10 complete control): 1
B. signalgrass plant response rating [8, 22]: 4
Plant response rating, B. signalgrass [8, 23]: 0
Plant response rating, B. signalgrass [8, 24]: 2
B. signalgrass plant response rating [8, 18]: 7
B. signalgrass plant response rating [8, 19]: 7
B. signalgrass plant response rating [8, 20]: 0
B. signalgrass plant response rating [8, 21]: 1
Velvetleaf plant response rating [9, 17]: 0
Plant response rating, Velvetleaf ([9]; Preemergence, Rate 62 g/ha): 0
Plant response rating, Velvetleaf ([9]; Preemergence, Rate 125 g/ha): 0
Velvetleaf plant response rating [9, 18]: 0
Velvetleaf plant response rating [9, 19]: 0
Velvetleaf plant response rating [9, 20]: 0
Velvetleaf plant response rating [9, 21]: 0
Wild oats plant response rating [10, 17]: 0
Plant response rating, Wild oats ([10]; Preemergence, Rate 62 g/ha): 0
Plant response rating, Wild oats ([10]; Preemergence, Rate 125 g/ha): 3
Wild oats plant response rating [10, 18]: 4
Wild oats plant response rating [10, 19]: 8
Wild oats plant response rating [10, 20]: 0
Wild oats plant response rating [10, 21]: 0
Soybean plant response rating [11, 17]: 4
Plant response rating, Soybean ([11]; Preemergence, Rate 62 g/ha): 0
Plant response rating, Soybean ([11]; Preemergence, Rate 125 g/ha): 0
Soybean plant response rating [11, 18]: 0
Soybean plant response rating [11, 19]: 0
Soybean plant response rating [11, 20]: 3
Soybean plant response rating [11, 21]: 4
Nutsedge plant response rating [12, 17]: 0
Plant response rating, Nutsedge ([12]; Preemergence, Rate 62 g/ha): 0
Plant response rating, Nutsedge ([12]; Preemergence, Rate 125 g/ha): 0
Nutsedge plant response rating [12, 18]: 0
Nutsedge plant response rating [12, 19]: 0
Nutsedge plant response rating [12, 20]: 0
Nutsedge plant response rating [12, 21]: 0
Crabgrass plant response rating [13, 17]: 6
Crabgrass plant response rating [13, 22]: 9
Plant response rating, Crabgrass [13, 23]: 6
Plant response rating, Crabgrass [13, 24]: 9
Crabgrass plant response rating [13, 18]: 9
Crabgrass plant response rating [13, 19]: 10
Crabgrass plant response rating [13, 20]: 2
Crabgrass plant response rating [13, 21]: 5
Sugarbeets plant response rating [14, 17]: 0
Plant response rating, Sugarbeets ([14]; Preemergence, Rate 62 g/ha): 0
Plant response rating, Sugarbeets ([14]; Preemergence, Rate 125 g/ha): 0
Sugarbeets plant response rating [14, 18]: 0
Sugarbeets plant response rating [14, 19]: 3
Sugarbeets plant response rating [14, 20]: 0
Sugarbeets plant response rating [14, 21]: 0
Bedstraw plant response rating [15, 17]: 8
Bedstraw plant response rating [15, 22]: 8
Plant response rating, Bedstraw [15, 23]: 0
Bedstraw plant response rating [15, 19]: 0
Bedstraw plant response rating [15, 20]: 6
Bedstraw plant response rating [15, 21]: 6
Plant response rating, Barnyardgrass (0 to 10 scale, 0 is no effect, 10 is complete control) [16, 25]: 0
Barnyardgrass plant response rating (0 to 10 scale, 0 is no effect, 10 is complete control) [16, 26]: 0
Barnyardgrass plant response rating [16, 27]: 0
Barnyardgrass plant response rating [16, 28]: 0
